Measured values taken from ChEMBL document CHEMBL3813616, “Discovery of novel 7-azaindoles as PDK1 inhibitors” (Bioorg Med Chem Lett, 2016).

Key:
[1] = target: Serine/threonine-protein kinase Nek6 (Homo sapiens) (UniProt Q9HC98); assay: Inhibition of human NEK6 (8 to 313 residues) assessed as enzyme activity at 1 uM using 33P ATP by radioactive filter binding assay; design: scale not given: the % may be the effect or the level left
[2] = target: Myosin light chain kinase, smooth muscle (Homo sapiens) (UniProt Q15746); assay: Inhibition of human smMLCK (475 to 838 residues) assessed as enzyme activity at 1 uM using 33P ATP by radioactive filter binding assay; design: scale not given: the % may be the effect or the level left
Myosin light chain kinase, smooth muscle (Homo sapiens), sequence (Q15746 whole entry, the tested form may be a part): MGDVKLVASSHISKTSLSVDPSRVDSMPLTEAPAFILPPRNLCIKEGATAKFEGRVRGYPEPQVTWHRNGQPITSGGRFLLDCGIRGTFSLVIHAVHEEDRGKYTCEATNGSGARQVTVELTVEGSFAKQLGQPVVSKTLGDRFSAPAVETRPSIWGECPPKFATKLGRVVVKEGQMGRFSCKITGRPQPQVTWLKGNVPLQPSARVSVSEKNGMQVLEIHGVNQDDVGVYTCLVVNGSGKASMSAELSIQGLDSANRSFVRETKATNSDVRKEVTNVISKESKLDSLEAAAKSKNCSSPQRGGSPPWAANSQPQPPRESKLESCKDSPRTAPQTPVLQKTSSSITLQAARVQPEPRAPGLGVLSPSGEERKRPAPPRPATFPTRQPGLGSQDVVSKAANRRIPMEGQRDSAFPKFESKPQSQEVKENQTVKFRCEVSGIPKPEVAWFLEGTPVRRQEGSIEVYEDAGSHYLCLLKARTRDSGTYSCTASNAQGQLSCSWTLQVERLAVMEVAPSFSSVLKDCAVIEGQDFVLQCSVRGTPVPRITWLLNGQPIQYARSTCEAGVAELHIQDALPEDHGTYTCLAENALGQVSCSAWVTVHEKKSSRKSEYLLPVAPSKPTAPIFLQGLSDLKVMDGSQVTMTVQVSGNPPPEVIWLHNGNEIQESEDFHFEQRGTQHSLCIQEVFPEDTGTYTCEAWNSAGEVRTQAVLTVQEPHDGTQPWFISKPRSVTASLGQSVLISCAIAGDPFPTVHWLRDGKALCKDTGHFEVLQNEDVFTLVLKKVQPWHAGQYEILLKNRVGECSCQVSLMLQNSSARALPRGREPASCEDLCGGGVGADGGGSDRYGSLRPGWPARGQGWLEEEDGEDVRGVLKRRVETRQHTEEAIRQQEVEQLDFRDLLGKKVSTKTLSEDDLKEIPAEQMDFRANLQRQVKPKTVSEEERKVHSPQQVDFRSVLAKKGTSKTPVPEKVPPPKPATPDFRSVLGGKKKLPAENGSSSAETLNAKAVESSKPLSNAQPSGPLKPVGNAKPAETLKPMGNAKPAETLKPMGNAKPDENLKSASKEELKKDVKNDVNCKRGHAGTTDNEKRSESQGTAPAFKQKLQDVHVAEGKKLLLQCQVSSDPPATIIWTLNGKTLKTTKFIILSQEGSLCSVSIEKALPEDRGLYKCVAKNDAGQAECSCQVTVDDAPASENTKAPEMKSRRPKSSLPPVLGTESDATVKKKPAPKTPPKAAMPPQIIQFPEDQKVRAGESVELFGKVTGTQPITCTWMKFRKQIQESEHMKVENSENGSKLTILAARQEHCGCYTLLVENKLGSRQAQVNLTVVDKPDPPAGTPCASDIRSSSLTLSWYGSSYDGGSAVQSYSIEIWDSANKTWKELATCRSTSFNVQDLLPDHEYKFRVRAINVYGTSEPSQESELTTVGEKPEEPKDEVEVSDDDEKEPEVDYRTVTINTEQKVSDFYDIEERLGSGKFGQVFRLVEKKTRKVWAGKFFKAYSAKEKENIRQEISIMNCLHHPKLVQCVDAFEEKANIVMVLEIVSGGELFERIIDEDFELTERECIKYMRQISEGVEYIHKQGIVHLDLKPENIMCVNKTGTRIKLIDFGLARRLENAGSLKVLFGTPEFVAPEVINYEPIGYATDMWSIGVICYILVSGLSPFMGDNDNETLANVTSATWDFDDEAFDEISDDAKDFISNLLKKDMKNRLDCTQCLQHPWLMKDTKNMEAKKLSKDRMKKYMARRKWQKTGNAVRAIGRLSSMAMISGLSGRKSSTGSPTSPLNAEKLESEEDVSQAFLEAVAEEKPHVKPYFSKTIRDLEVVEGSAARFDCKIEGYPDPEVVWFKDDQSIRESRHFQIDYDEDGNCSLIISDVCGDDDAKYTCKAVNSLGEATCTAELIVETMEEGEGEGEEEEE

[3] = target: Tyrosine-protein kinase Yes (Homo sapiens) (UniProt P07947); assay: Inhibition of human YES1 (1 to 543 residues) assessed as enzyme activity at 1 uM using 33P ATP by radioactive filter binding assay; design: scale not given: the % may be the effect or the level left
[4] = target: MAP kinase-activated protein kinase 2 (Homo sapiens) (UniProt P49137); assay: Inhibition of human MAPKAPK2 (46 to 400 residues) assessed as enzyme activity at 1 uM using 33P ATP by radioactive filter binding assay; design: scale not given: the % may be the effect or the level left
MAP kinase-activated protein kinase 2 (Homo sapiens), sequence (P49137 whole entry, looked up, the tested form may be a part): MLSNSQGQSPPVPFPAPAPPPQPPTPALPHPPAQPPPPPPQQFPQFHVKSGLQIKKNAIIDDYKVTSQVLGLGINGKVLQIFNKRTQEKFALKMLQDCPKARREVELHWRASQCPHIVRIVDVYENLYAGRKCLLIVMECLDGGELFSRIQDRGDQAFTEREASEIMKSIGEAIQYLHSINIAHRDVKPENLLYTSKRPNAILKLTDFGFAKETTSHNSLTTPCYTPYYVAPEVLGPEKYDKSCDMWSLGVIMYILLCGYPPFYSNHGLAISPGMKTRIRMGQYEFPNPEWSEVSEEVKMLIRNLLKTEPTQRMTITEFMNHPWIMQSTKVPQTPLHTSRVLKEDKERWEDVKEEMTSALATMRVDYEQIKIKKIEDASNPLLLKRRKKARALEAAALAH

[5] = target: cAMP-dependent protein kinase catalytic subunit alpha (Homo sapiens) (UniProt P17612); assay: Inhibition of human PKA alpha (2 to 351 residues) assessed as enzyme activity at 1 uM using 33P ATP by radioactive filter binding assay; design: scale not given: the % may be the effect or the level left
[6] = target: T1, Protein kinase C zeta type (Homo sapiens) (UniProt Q05513); assay: Inhibition of human PKCzeta (2 to 592 residues) assessed as enzyme activity at 1 uM using 33P ATP by radioactive filter binding assay; design: scale not given: the % may be the effect or the level left
T1 sequence (whole entry): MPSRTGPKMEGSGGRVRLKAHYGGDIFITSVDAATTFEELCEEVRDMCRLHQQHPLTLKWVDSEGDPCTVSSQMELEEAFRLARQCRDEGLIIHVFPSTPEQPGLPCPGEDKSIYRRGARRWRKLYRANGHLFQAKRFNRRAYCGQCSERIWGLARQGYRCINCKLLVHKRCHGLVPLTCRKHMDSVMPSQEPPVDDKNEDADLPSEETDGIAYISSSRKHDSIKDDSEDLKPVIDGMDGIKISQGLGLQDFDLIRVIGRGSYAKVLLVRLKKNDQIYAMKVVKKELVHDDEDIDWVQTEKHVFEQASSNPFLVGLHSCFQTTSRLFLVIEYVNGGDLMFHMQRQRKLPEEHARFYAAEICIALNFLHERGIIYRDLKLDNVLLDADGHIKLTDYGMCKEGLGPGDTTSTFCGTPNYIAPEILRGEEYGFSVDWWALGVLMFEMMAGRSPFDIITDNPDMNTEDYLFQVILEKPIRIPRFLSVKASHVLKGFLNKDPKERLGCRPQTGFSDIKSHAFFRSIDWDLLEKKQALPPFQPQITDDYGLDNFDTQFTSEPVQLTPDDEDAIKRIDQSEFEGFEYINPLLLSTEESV

[7] = target: Mitogen-activated protein kinase 1 (Homo sapiens) (UniProt P28482); assay: Inhibition of human MAPK2 (2 to 360 residues) assessed as enzyme activity at 1 uM using 33P ATP by radioactive filter binding assay; design: scale not given: the % may be the effect or the level left
[8] = target: Serine/threonine-protein kinase PLK1 (Homo sapiens) (UniProt P53350); assay: Inhibition of human PLK1 (1 to 603 residues) assessed as enzyme activity at 1 uM using 33P ATP by radioactive filter binding assay; design: scale not given: the % may be the effect or the level left
Serine/threonine-protein kinase PLK1 (Homo sapiens), sequence (P53350 whole entry, the tested form may be a part): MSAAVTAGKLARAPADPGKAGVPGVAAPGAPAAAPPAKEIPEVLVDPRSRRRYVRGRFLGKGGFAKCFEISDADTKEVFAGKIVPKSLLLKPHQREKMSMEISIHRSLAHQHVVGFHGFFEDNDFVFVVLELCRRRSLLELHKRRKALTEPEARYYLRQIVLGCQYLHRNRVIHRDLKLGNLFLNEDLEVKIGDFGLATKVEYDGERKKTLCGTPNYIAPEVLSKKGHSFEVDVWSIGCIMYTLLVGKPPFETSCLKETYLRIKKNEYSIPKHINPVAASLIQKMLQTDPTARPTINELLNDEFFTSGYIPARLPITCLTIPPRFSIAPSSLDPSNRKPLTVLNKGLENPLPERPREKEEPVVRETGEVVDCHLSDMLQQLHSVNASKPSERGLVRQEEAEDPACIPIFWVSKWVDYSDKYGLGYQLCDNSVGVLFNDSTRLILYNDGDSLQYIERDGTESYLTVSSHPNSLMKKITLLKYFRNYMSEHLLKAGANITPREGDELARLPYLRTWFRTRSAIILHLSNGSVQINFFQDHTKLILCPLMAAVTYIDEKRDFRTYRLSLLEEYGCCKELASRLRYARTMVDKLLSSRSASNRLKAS

[9] = target: Maternal embryonic leucine zipper kinase (Homo sapiens) (UniProt Q14680); assay: Inhibition of human MELK (2 to 651 residues) assessed as enzyme activity at 1 uM using 33P ATP by radioactive filter binding assay; design: scale not given: the % may be the effect or the level left
Maternal embryonic leucine zipper kinase (Homo sapiens), sequence (Q14680 whole entry, looked up, the tested form may be a part): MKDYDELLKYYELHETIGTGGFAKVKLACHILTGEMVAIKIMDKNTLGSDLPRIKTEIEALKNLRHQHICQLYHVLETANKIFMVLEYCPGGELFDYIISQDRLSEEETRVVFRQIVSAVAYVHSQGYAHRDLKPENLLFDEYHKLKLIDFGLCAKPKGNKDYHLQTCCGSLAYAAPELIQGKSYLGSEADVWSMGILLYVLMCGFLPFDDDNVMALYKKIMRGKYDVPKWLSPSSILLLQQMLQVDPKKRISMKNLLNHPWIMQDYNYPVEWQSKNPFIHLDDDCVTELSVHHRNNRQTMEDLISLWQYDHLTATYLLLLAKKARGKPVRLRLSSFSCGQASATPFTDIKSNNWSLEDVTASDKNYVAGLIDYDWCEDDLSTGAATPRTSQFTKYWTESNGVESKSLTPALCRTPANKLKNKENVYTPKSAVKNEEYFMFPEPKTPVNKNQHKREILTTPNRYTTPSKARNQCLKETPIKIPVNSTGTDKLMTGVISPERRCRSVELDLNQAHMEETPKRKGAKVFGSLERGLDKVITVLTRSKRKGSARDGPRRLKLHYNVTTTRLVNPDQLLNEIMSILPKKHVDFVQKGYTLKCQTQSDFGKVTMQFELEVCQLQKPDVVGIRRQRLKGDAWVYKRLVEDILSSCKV

[10] = target: T2, MAP kinase-activated protein kinase 5 (Homo sapiens) (UniProt Q8IW41); assay: Inhibition of human PRAK (1 to 471 residues) assessed as enzyme activity at 1 uM using 33P ATP by radioactive filter binding assay; design: scale not given: the % may be the effect or the level left
T2 sequence (whole entry): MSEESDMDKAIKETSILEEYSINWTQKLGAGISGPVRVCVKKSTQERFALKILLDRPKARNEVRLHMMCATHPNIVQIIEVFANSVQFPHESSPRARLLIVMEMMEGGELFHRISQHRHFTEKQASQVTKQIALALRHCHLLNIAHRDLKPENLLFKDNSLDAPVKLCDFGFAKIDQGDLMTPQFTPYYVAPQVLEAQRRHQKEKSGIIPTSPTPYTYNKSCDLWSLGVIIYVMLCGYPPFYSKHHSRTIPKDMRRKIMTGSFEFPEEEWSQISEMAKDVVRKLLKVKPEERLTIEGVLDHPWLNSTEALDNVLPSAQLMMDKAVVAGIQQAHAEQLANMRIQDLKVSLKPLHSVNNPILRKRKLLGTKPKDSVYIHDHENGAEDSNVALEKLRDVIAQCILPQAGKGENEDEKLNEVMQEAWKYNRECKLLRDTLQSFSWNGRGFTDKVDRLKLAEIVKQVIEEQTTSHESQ

[11] = target: T3, Mitogen-activated protein kinase 12 (Homo sapiens) (UniProt P53778); assay: Inhibition of SAPK3 (unknown origin) assessed as enzyme activity at 1 uM using 33P ATP by radioactive filter binding assay; design: scale not given: the % may be the effect or the level left
T3 sequence (whole entry): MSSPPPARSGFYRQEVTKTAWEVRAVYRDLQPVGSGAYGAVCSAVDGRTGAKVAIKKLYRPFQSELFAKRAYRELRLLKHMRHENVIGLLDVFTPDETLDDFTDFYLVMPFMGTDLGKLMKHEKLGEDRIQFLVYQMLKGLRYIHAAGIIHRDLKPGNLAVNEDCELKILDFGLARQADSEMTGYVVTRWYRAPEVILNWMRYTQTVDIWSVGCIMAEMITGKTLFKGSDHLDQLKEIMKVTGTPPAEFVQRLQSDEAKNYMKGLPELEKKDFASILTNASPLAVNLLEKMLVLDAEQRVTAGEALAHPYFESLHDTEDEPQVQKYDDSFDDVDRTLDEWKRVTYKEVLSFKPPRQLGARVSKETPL

[12] = target: MAP kinase-interacting serine/threonine-protein kinase 1 (Homo sapiens) (UniProt Q9BUB5); assay: Inhibition of human MNK1 (2 to 424 residues) assessed as enzyme activity at 1 uM using 33P ATP by radioactive filter binding assay; design: scale not given: the % may be the effect or the level left
[13] = target: SRSF protein kinase 1 (Homo sapiens) (UniProt Q96SB4); assay: Inhibition of human SRPK1 (2 to 654 residues) assessed as enzyme activity at 1 uM using 33P ATP by radioactive filter binding assay; design: scale not given: the % may be the effect or the level left
SRSF protein kinase 1 (Homo sapiens), sequence (Q96SB4 whole entry, the tested form may be a part): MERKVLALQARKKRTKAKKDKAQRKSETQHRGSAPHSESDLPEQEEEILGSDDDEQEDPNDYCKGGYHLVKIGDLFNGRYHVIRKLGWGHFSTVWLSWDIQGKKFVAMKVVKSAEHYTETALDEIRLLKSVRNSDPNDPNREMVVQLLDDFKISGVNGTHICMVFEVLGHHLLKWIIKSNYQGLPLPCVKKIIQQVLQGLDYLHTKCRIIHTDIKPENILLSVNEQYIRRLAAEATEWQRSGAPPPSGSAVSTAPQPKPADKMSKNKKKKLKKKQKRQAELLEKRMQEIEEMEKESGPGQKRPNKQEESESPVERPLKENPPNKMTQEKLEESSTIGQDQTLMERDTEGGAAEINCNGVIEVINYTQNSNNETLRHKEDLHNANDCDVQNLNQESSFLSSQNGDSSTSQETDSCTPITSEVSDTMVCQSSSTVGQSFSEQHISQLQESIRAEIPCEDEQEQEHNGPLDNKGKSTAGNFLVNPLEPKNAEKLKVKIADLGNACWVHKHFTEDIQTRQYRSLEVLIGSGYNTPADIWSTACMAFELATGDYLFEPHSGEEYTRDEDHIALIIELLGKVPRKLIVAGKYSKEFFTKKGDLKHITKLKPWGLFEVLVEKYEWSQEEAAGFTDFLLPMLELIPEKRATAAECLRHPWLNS

[14] = Intrinsic clearance in human liver microsomes; type: ADME; conditions: read-out: CLH
[15] = target: Calcium/calmodulin-dependent protein kinase kinase 2 (Homo sapiens) (UniProt Q96RR4); assay: Inhibition of human CAMKKb (1 to 541 residues) assessed as enzyme activity at 1 uM using 33P ATP by radioactive filter binding assay; design: scale not given: the % may be the effect or the level left
Calcium/calmodulin-dependent protein kinase kinase 2 (Homo sapiens), sequence (Q96RR4 2-588 limits assumed): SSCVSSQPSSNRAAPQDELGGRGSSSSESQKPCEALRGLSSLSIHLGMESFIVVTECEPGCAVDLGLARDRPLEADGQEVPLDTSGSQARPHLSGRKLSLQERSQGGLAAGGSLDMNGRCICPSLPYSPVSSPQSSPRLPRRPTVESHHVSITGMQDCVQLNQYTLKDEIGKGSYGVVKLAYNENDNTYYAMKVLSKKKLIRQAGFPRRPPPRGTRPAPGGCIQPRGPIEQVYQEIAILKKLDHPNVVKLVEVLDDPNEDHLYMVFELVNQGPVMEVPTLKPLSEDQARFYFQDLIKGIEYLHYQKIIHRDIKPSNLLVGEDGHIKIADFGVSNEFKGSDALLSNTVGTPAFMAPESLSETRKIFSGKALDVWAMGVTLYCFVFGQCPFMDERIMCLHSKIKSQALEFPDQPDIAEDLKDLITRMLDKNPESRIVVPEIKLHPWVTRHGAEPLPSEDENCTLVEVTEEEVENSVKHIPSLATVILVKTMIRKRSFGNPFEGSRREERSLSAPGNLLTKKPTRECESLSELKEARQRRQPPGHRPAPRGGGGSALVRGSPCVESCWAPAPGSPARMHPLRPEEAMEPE

[16] = target: Serine/threonine-protein kinase Nek7 (Homo sapiens) (UniProt Q8TDX7); assay: Inhibition of NEK7 (unknown origin) assessed as enzyme activity at 1 uM using 33P ATP by radioactive filter binding assay; design: scale not given: the % may be the effect or the level left
[17] = target: Phosphatidylinositol 4,5-bisphosphate 3-kinase catalytic subunit alpha isoform (Homo sapiens, UniProt P42336); assay: Inhibition of PI3K alpha (unknown origin)
[18] = target: MAP kinase-activated protein kinase 3 (Homo sapiens) (UniProt Q16644); assay: Inhibition of human MAPKAPK3 (2 to 382 residues) assessed as enzyme activity at 1 uM using 33P ATP by radioactive filter binding assay; design: scale not given: the % may be the effect or the level left

SMILES | Activity [1] | Activity [2] | Activity [3] | Activity [4] | Activity [5] | Activity [6] | Activity [7] | Activity [8] | Activity [9] | Activity [10] | Activity [11] | Activity [12] | Activity [13] | microsomal CLint [14] | Activity [15] | Activity [16] | IC50 [17] | Activity [18]
CCc1cc(-c2c[nH]c3ncc(-c4cnn(C5CCNCC5)c4)cc23)nc(N)n1 | -4% | -40% | -46% | -3% | -38% | -18% | -32% | -41% | -81% | 4% | -45% | -46% | 3% | < 10 µL/min/mg | -58% | – | – | –
CCCCc1cc(-c2c[nH]c3ncccc23)nc(N)n1 | -11% | -10% | -21% | 13% | -54% | -43% | -9% | -6% | -89% | 2% | -57% | -23% | -12% | – | -2% | 4% | > 10 µM | 17%
CCCCc1cc(-c2c[nH]c3ncc(-c4cnn(C5CCNCC5)c4)cc23)nc(N)n1 | -16% | -72% | -78% | -23% | -42% | -42% | -30% | -41% | -85% | -10% | -42% | -59% | -14% | < 10 µL/min/mg | -86% | – | 5.5 µM | –
Nc1nccc(-c2c[nH]c3ncccc23)n1 [MERIOLIN 1] | -7% | -35% | 2% | -8% | -66% | -35% | -21% | -26% | -64% | -17% | -59% | -15% | -9% | – | -31% | -2% | > 10 µM | -8%
